Patent US8597904B2, “Pharmaceutical compositions for the treatment of conditions responsive to proteasome inhibition” (priority 2007, dated 2013)

Tests used:
TH-MYCN transgenic mouse [1] = assay: chemoprevention in TH-MYCN mouse model of human neuroblastoma; assay type: in vivo; conditions: homozygous mice, treatment from week 4 or 5, vs untreated mice
From the text: (§1) The TH-MYCN transgenic mouse is a well-established neuroblastoma mouse model (Hansfored, et al. 2004. PNAS 101(34):12664-12669; Weiss, et al. 2007. Cancer Res 67(19):9435-9442; Weiss, et al. 2000. Cancer Res 6″2483-2487, each of which is incorporated herein by reference in its entirety). The tumors are caused by targeted expression of MYCN to the neural crest under the control of the rat tyrosine hydroxylase promoter, where the mice develop a tumor phenotype that closely resembles the human disease. The tumors in this strain of mouse generally develop in the abdominal and thoracic areas. TH-MYCN breeder pairs are supplied as hemizygote (129×1/SvJ-Tg(TH-MYCN)41Waw) and a wild type mate (129×1/SvJ).
Treatment regimen is similar to that described in Example 16. Test compounds are administered to homozygous mice at a dose that is developed based upon the results of the initial dose and toxicity study (Example 15). Two to four doses per compound are administered by i.p. and/or i.v. methods into homozygous mice at week 4 or 5 (in advance of tumor development, which occurs closer to week 7). Vehicle is delivered as a control. Further doses are administered every 72 hours thereafter for 3 to 6 weeks. Between eight to twelve mice are tested in the study for administration of each compound. […] At the conclusion of the study, the mice are sacrificed and tumor size and number of tumors are assessed.

[2] = molecular target: T1, proteasome activity in SK-N-SH neuroblastoma cells (Homo sapiens, UniProt P28074); assay: Proteasome-Glo cell-based luminescent assay
T1 construct: endogenous in cells; host or cells: SK-N-SH
T1 sequence (P28074 60-263): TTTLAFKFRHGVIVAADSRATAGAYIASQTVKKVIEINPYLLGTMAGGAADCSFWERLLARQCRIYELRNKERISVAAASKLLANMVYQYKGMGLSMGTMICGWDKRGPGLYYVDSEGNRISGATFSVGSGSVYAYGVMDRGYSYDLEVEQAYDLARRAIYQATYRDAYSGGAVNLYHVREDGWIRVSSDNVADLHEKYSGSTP
Method: Syringolin A was tested as a proteasome inhibitor in vivo in cultured mammalian cancer cells. Inhibition of proteasome activity in human SK-N-SH neuroblastoma cells was measured using the Proteasome-Glo™ cell-based luminescent assay (Promega) in solid white 96-well microtiter cell culture plates. Ten μl of syringolin A (at various concentrations) was added to each well containing SK-N-SH cells (plated at a concentration of 1.0×10^5 cells/ml in 90 μl well volumes 24 hours prior) and a negative control and media only control were included. Cells were incubated with 1-100 μM syringolin A for 2 hours or 24 hours, and then equilibrated to room temperature for 15 minutes before 100 μl of Proteasome-Glo reagent (containing bioluminescent substrate Suc-LLVY-aminoluciferin) was added to the cells. Luminescence (indicated as relative luminescence units [RLU]) was read after 15-30 minutes on a Dynex MLX Luminometer.
To trace the kinetics of proteasome inhibition in the presence of syringolin, the same experiment was performed, but in this case, 100 μl of Proteasome-Glo reagent was added to cells first, followed by the addition of syringolin A at various concentrations, and the proteasome activity was measured over time.
The cell culture-based proteasome inhibition assay was performed as previously described (Groll et al. 2008. Nature 452:755-758, which is incorporated herein by reference in its entirety). Briefly, wells of white-walled 96-well microtiter cell culture plates were seeded at a density of 1×10^4 cells/well (SK-N-SH) or 5×10^3 cells/well (SKOV3) in 90 μl. After 24 hours, 10 μl GlbA or SylA were added at increasing concentrations (0-100 μM) and incubated for 2 hours. […] Cell Death Differ 9:1017-1025; Meng, et al. 1999. PNAS 96:10403-10408, each of which is incorporated herein by reference in its entirety) were used as positive and negative controls, respectively. Microtiter plates were then equilibrated to room temperature for 15 min before adding 100 μl of proteasome Glo™ reagent (containing bioluminescent substrate Suc-LLVY-aminoluciferin) per well. Luminescence was measured on a Dynex MLX luminometer, according to the manufacturer's instructions (Promega).

TH-MYCN transgenic mouse [3] = assay: tumor reduction in TH-MYCN mouse model of human neuroblastoma; assay type: in vivo; conditions: homozygous mice, i.p. and/or i.v., every 72 hours for 3 to 6 weeks, vs untreated mice
From the text: as §1
Test compounds are administered to homozygous mice at a dose that is developed based upon the results of the initial dose and toxicity study (Example 15). Two to four doses per compound are administered by i.p. and/or i.v. methods into homozygous mice when palpable tumors begin to form. Vehicle is delivered […] as a control. Further doses are administered thereafter every 72 hours for 3 to 6 weeks. Between eight to twelve mice are tested in the study for administration of each compound. […] At the conclusion of the study, the mice are sacrificed and tumor size and number of tumors are assessed.

| SMILES | tumor formation (TH-MYCN transgenic mouse [1]) | IC50 ([2]; 2 hours, read-out: IC50 of proteasomal activity) [nM] | potency of GlbA relative to SylA ([2]; ratio of IC50) | size and number of tumors (TH-MYCN transgenic mouse [3]) | proteasome activity in cells ([2]; 2 hours incubation) | kinetics of proteasome inhibition in cells ([2]; reagent added first, activity measured over time) |
| --- | --- | --- | --- | --- | --- | --- |
| CCCCCCC/C=C/C=C/C(=O)N[C@H](C(=O)N[C@H]1C[C@@H](O)CCNC(=O)/C=C/[C@H](C)NC1=O)[C@@H](C)O [glidobactin A] | fewer or no tumors | 55 | approximately 26 fold | effective in reducing both the size and number of tumors |  |  |
| CC(C)[C@H](NC(=O)N[C@H](C(=O)N[C@H]1/C=C/CCNC(=O)/C=C/[C@H](C(C)C)NC1=O)C(C)C)C(=O)O [syringolin A] | fewer or no tumors |  |  | effective in reducing both the size and number of tumors | dose-dependent decrease of proteasome activity | inhibited proteasome activity in a time and dose-dependent manner in the micromolar range |
